# How the values were obtained:
# Assay type in all cases: cell-based, human
# A2780 cells = experiment: Pharmacological reactivation of methylated genes by 5-Aza-dC, Affymetrix U133 plus 2 expression arrays, A2780; conditions: A2780, 5 μM, 24 hours
# Description: (§1) Experiments were performed in triplicate using ovarian cancer cell lines A2780 and CaOV3, derived from primary Type II EOC. Cell lines were treated at 30% confluence with 5 μM and 2.5 μMrespectively (concentrations previously optimized to minimize cellular toxicity, data not shown), with the DNA methyltransferase inhibitor 5-aza-2′ deoxycytidine (5-Aza-dC), (Sigma Aldrich, St. Louis Mo., USA) for 24 hours. Cells were then expanded to 90% confluency, media changed every 24 hr before extracting RNA (RNeasy, Qiagen). As a positive control, re-expression and DNA demethylation for the methylated gene DLEC1 was verified by qPCR and clonal bisulphite sequencing.
# (§2) Total RNA from A2780 and CaOV3 cell lines, plus and minus treatment with 5-Aza-dC was characterized on the Agilent bioanalyzer RNA nano chip (Agilent, Foster City Calif., USA) for an RNA integrity number (RIN) of >9.0, labeled and hybridized to Affymetrix human genome U133 plus 2 GeneChips essentially according to manufacturer's instructions. The GeneChip scans were analyzed by GCOS (Affymetrix) and resulting probeset intensities normalized by the robust multi-array average (RMA) method (Irizarry, et al., Biostatistics 4: 249-264, 2003). […] The data were normalized separately for each cell line and robust multichip average (RMA) values for analysis were imported into Genespring GX 7.3. Genes re-expressed by 5-Aza-dC were identified as “absent” (undetectable) in all three replicate untreated samples and “present” or “marginal” (detectable) in two of three replicate 5-Aza-dC treated samples.
# (§3) Three steps were implemented to identify aberrantly silenced and methylated genes in EOC. First, to identify genes potentially silenced by DNA methylation, genome wide epigenetic reexpression profiles were generated for two ovarian cancer cell lines. […] Genes showing potential methylation-based silencing were identified if they were undetectable in the untreated cells, but re-expressed by 5-Aza-dC treatments. Using these criteria 947 and 1091 probesets were identified in A2780 and CaOV3 cells respectively, that were reactivated.
# CaOV3 cells = experiment: Pharmacological reactivation of methylated genes by 5-Aza-dC, Affymetrix U133 plus 2 expression arrays, CaOV3; conditions: CaOV3, 2.5 μM, 24 hours
# Description: as §1, §2, §3
# DLEC1 = experiment: Positive control: re-expression and demethylation of DLEC1 (qPCR, clonal bisulphite sequencing); conditions: A2780 and CaOV3 cells treated with 5-Aza-dC
# Description: as §1
structure (smiles),measurement,setting,value
"Nc1ncn([C@H]2C[C@H](O)[C@@H](CO)O2)c(=O)n1 [5-Aza-dC, 5-aza-2′ deoxycytidine]","probesets reactivated (undetectable in untreated cells, re-expressed by 5-Aza-dC)",A2780 cells; HGU133 plus 2.0,947 probesets
same,Fold Change 5-aza-dC vs,"A2780 cells; ARMXC1 mRNA, probeset 218694_at",1.19
same,Fold Change 5-aza-dC vs,"A2780 cells; HSPA2 mRNA, probeset 211538_s_at",33.78
same,Fold Change 5-aza-dC vs,"A2780 cells; IL18 mRNA, probeset 206295_at",1.20
same,Fold Change 5-aza-dC vs,"A2780 cells; LTBP2 mRNA, probeset 223690_at",1.57
same,Fold Change 5-aza-dC vs,"A2780 cells; PAPLN mRNA, probeset 226435_at",2.78
same,Fold Change 5-aza-dC vs,"A2780 cells; PARVA mRNA, probeset 222454_s_at",1.78
same,Fold Change 5-aza-dC vs,"A2780 cells; PEG3 mRNA, probeset 209242_at",3.87
same,Fold Change 5-aza-dC vs,"A2780 cells; PYCARD mRNA, probeset 221666_s_at",3.72
same,Fold Change 5-aza-dC vs,"A2780 cells; SCIN1 mRNA, probeset 1552365_at",1.28
same,Fold Change 5-aza-dC vs,"A2780 cells; SGNE1 mRNA, probeset 203889_at",4.15
same,Fold Change 5-aza-dC vs,"A2780 cells; SOCS1 mRNA, probeset 210001_s_at",4.80
same,Fold Change 5-aza-dC vs,"A2780 cells; SPOCK2 mRNA, probeset 202524_s_at",1.41
same,Fold Change 5-aza-dC vs,"A2780 cells; ZNF177 mRNA, probeset 207417_s_at",1.61
same,Fold Change 5-aza-dC vs,"A2780 cells; ZNF542 mRNA, probeset 239250_at",2.35
same,Fold Change 5-aza-dC vs,"CaOV3 cells; BMP6 mRNA, probeset 206176_at",1.25
same,Fold Change 5-aza-dC vs,"CaOV3 cells; CST6 mRNA, probeset 231248_at",1.96
same,"probesets reactivated (undetectable in untreated cells, re-expressed by 5-Aza-dC)",CaOV3 cells; HGU133 plus 2.0,1091 probesets
same,Fold Change 5-aza-dC vs,"CaOV3 cells; ICAM4 mRNA, probeset 207194_s_at",1.89
same,Fold Change 5-aza-dC vs,"CaOV3 cells; KLF4 mRNA, probeset 220266_s_at",3.78
same,Fold Change 5-aza-dC vs,"CaOV3 cells; LOC134466 RNA, probeset 244289_at",1.18
same,Fold Change 5-aza-dC vs,"CaOV3 cells; PTGER mRNA, probeset 213933_at",1.32
same,Fold Change 5-aza-dC vs,"CaOV3 cells; TLE4 mRNA, probeset 204872_at",1.20
same,re-expression and demethylation of the methylated gene DLEC1,DLEC1,induce re-expression and demethylation
